Measured values as given in US10568950B1, “Peptides, combination of peptides and scaffolds for use in immunotherapeutic treatment of various cancers” (Immatics Biotechnologies GmbH, priority 2015, dated 2020).

Tests used:
[1] = tested on: CD8+ T cells of healthy HLA-A*24+ donors; test: In vitro immunogenicity: priming of CD8+ T cells with aAPCs loaded with HLA-A*24/peptide complexes and anti-CD28, multimer staining; assay type: cell-based, human; details: in vitro immunogenicity, HLA-A*24 peptides of Table 12B
Experimental: CD8+ T cells were primed using artificial APCs coated with anti-CD28 mAb and HLA-A*24 in complex with SEQ ID NO: 99 peptide (FIG. 5A, left panel), SEQ ID NO: 119 peptide (FIG. 5B, left panel), SEQ ID NO: 142 peptide (FIG. 5C, left panel) and SEQ ID NO: 174 peptide (FIG. 5D, left panel), respectively. After three cycles of stimulation, the detection of peptide-reactive cells was performed by 2D multimer staining with A*24/SEQ ID NO: 99 (A), A*24/SEQ ID NO: 119 (B), A*24/SEQ ID NO: 142 (C) or A*24/SEQ ID NO: 174 (D). Right panels (FIGS. 5A, 5B, 5C and 5D) show control staining of cells stimulated with irrelevant A*24/peptide complexes. Viable singlet cells were gated for CD8+ lymphocytes. Boolean gates helped excluding false-positive events detected with multimers specific for different peptides. Frequencies of specific multimer+ cells among CD8+ lymphocytes are indicated.
In order to obtain information regarding the immunogenicity of the TUMAPs of the present invention, the inventors performed investigations using an in vitro T-cell priming assay based on repeated stimulations of CD8+ T cells with artificial antigen presenting cells (aAPCs) loaded with peptide/MHC complexes and anti-CD28 antibody.
PBMCs and isolated CD8+ lymphocytes were incubated in T-cell medium (TCM) until use consisting of RPMI-Glutamax (Invitrogen, Karlsruhe, Germany) supplemented with 10% heat inactivated human AB serum (PAN-Biotech, Aidenbach, Germany), 100 U/ml Penicillin/100 μg/ml Streptomycin (Cambrex, Cologne, Germany), 1 mM sodium pyruvate (CC Pro, Oberdorla, Germany), 20 μg/ml Gentamycin (Cambrex). 2.5 ng/ml IL-7 (PromoCell, Heidelberg, Germany) and 10 U/ml IL-2 (Novartis Pharma, Nurnberg, Germany) were also added to the TCM at this step.
Generation of pMHC/anti-CD28 coated beads, T-cell stimulations and readout was performed in a highly defined in vitro system using four different pMHC molecules per stimulation condition and 8 different pMHC molecules per readout condition.
The purified co-stimulatory mouse IgG2a anti human CD28 Ab 9.3 (Jung et al., 1987) was chemically biotinylated using Sulfo-N-hydroxysuccinimidobiotin as recommended by the manufacturer (Perbio, Bonn, Germany). Beads used were 5.6 μm diameter streptavidin coated polystyrene particles (Bangs Laboratories, Illinois, USA).
800.000 beads/200 μl were coated in 96-well plates in the presence of 4×12.5 ng different biotin-pMHC, washed and 600 ng biotin anti-CD28 were added subsequently in a volume of 200 μl. Stimulations were initiated in 96-well plates by co-incubating […] CD8+ T cells with 2×10^5 washed coated beads in 200 μl TCM supplemented with 5 ng/ml IL-12 (PromoCell) for 3 days at 37° C. Half of the medium was then exchanged by fresh TCM supplemented with 80 U/ml IL-2 and incubating was continued for 4 days at 37° C. This stimulation cycle was performed for a total of three times. For the pMHC multimer readout using 8 different pMHC molecules per condition, a two-dimensional combinatorial coding approach was used as previously described (Andersen et al., 2012) with minor modifications encompassing coupling to 5 different fluorochromes. Finally, multimeric analyses were performed by staining the cells with Live/dead near IR dye (Invitrogen, Karlsruhe, Germany), CD8-FITC antibody clone SKI (BD, Heidelberg, Germany) and fluorescent pMHC multimers. For analysis, a BD LSRII SORP cytometer equipped with appropriate lasers and filters was used. Peptide specific cells were calculated as percentage of total CD8+ cells. Evaluation of multimeric analysis was done using the FlowJo software (Tree Star, Oreg., USA). In vitro priming of specific multimer+ CD8+ lymphocytes was detected by comparing to negative control stimulations.

HLA-A*24 = test: MHC binding assay: UV-ligand exchange, beta2m ELISA (peptide exchange yield); set-up: species or system human; details: binding to HLA-A*24, β2m ELISA
Excerpt: Candidate peptides for T cell based therapies according to the present invention were further tested for their MHC binding capacity (affinity). The individual peptide-MHC complexes were produced by UV-ligand exchange, where a UV-sensitive peptide is cleaved upon UV-irradiation, and exchanged with the peptide of interest as analyzed. Only peptide candidates that can effectively bind and stabilize the peptide-receptive MHC molecules prevent dissociation of the MHC complexes. To determine the yield of the exchange reaction, an ELISA was performed based on the detection of the light chain (β2m) of stabilized MHC complexes. The assay was performed as generally described in Rodenko et al. (Rodenko et al., 2006).
96 well MAXISorp plates (NUNC) were coated over night with 2 ug/ml streptavidin in PBS at room temperature, washed 4× and blocked for 1 h at 37° C. in 2% BSA containing blocking buffer. […] Peptide-MHC monomers of the UV-exchange reaction were diluted 100 fold in blocking buffer. Samples were incubated for 1 h at 37° C., washed four times, incubated with 2 ug/ml HRP conjugated anti-βm for 1 h at 37° C., washed again and detected with TMB solution that is stopped with […]. Absorption was measured at 450 nm. Candidate peptides that show a high exchange yield (preferably higher than 50%, most preferred higher than 75%) are generally preferred for a generation and production of antibodies or fragments thereof, and/or T cell receptors or fragments thereof, as they show sufficient avidity to the MHC molecules and prevent dissociation of the MHC complexes.

| Substance | Wells positive [%] [1] | Peptide exchange (MHC class I binding score, peptide exchange yield) (HLA-A*24) |
| --- | --- | --- |
| 345 (EYNSDLHQFF; listed as Homo sapiens) [compound 345] | ++ (20%-49% = ++) | – |
| 98 (VFPRLHNVLF; listed as Homo sapiens) [compound 98] | + (<20% = +) | – |
| 187 (AYAANVHYL; listed as Homo sapiens) [compound 187] | – | ++++ (>= 75% = ++++) |
| 271 (RFLMKSYSF; listed as Homo sapiens) [compound 271] | – | ++++ (>= 75% = ++++) |
| 97 (TYTFLKETF; listed as Homo sapiens) [compound 97] | – | ++++ (>= 75% = ++++) |
| 274 (KQLDIANYELF; listed as Homo sapiens) [compound 274] | – | ++++ (>= 75% = ++++) |
| 206 (NYLDVATFL; listed as Homo sapiens) [compound 206] | – | ++++ (>= 75% = ++++) |
| 296 (SYQVIFQHF; listed as Homo sapiens) [compound 296] | – | ++++ (>= 75% = ++++) |
| 197 (IFTDIFHYL; listed as Homo sapiens) [compound 197] | – | ++++ (>= 75% = ++++) |
| 208 (TYLEKIDGF; listed as Homo sapiens) [compound 208] | – | ++++ (>= 75% = ++++) |
| 261 (GYIKLINFI; listed as Homo sapiens) [compound 261] | – | ++++ (>= 75% = ++++) |
| 357 (QFITSTNTF; listed as Homo sapiens) [compound 357] | – | ++++ (>= 75% = ++++) |
| 135 (VYEAMVPLF; listed as Homo sapiens) [compound 135] | – | ++++ (>= 75% = ++++) |
| 223 (TFITQSPLL; listed as Homo sapiens) [compound 223] | – | ++++ (>= 75% = ++++) |
| 185 (QYLVHVNDL; listed as Homo sapiens) [compound 185] | – | ++++ (>= 75% = ++++) |
| 231 (AFADVSVKF; listed as Homo sapiens) [compound 231] | – | ++++ (>= 75% = ++++) |
| 264 (LYTETRLQF; listed as Homo sapiens) [compound 264] | – | ++++ (>= 75% = ++++) |
| 154 (VYGVPTPHF; listed as Homo sapiens) [compound 154] | – | ++++ (>= 75% = ++++) |
| 293 (VYPHFSTTNLI; listed as Homo sapiens) [compound 293] | – | ++++ (>= 75% = ++++) |
| 153 (VYVPFGGKSMITF; listed as Homo sapiens) [compound 153] | – | ++++ (>= 75% = ++++) |
| 280 (TYNPNLQDKL; listed as Homo sapiens) [compound 280] | – | ++++ (>= 75% = ++++) |

| Substance | Wells positive [%] [1] | Peptide exchange (MHC class I binding score, peptide exchange yield) (HLA-A*24) |
| --- | --- | --- |
| 252 (AFGQETNVPLNNF; listed as Homo sapiens) [compound 252] | – | ++++ (>= 75% = ++++) |
| 290 (KYGDFKLLEF; listed as Homo sapiens) [compound 290] | – | ++++ (>= 75% = ++++) |
| 221 (KYIGNLDLL; listed as Homo sapiens) [compound 221] | – | ++++ (>= 75% = ++++) |
| 311 (EYLQNLNHI; listed as Homo sapiens) [compound 311] | – | ++++ (>= 75% = ++++) |
| 286 (SYGTILSHI; listed as Homo sapiens) [compound 286] | – | ++++ (>= 75% = ++++) |
| 272 (RYVFPLPYL; listed as Homo sapiens) [compound 272] | – | ++++ (>= 75% = ++++) |
| 379 (VFIAQGYTL; listed as Homo sapiens) [compound 379] | – | ++++ (>= 75% = ++++) |
| 276 (QYLDVLHAL; listed as Homo sapiens) [compound 276] | – | ++++ (>= 75% = ++++) |
| 275 (KYGTLDVTF; listed as Homo sapiens) [compound 275] | – | ++++ (>= 75% = ++++) |
| 217 (IYISNSIYF; listed as Homo sapiens) [compound 217] | – | ++++ (>= 75% = ++++) |
| 196 (GYIRGSWQF; listed as Homo sapiens) [compound 196] | – | ++++ (>= 75% = ++++) |
| 249 (RYHPTTCTI; listed as Homo sapiens) [compound 249] | – | ++++ (>= 75% = ++++) |
| 148 (SYGTVSQIF; listed as Homo sapiens) [compound 148] | – | ++++ (>= 75% = ++++) |
| 116 (AYVIAVHLF; listed as Homo sapiens) [compound 116] | – | ++++ (>= 75% = ++++) |
| 260 (VYMNVMTRL; listed as Homo sapiens) [compound 260] | – | ++++ (>= 75% = ++++) |
| 209 (AFIETPIPLF; listed as Homo sapiens) [compound 209] | – | ++++ (>= 75% = ++++) |
| 298 (AYKSEVVYF; listed as Homo sapiens) [compound 298] | – | ++++ (>= 75% = ++++) |
| 128 (VYPFDWQYI; listed as Homo sapiens) [compound 128] | – | ++++ (>= 75% = ++++) |
| 292 (FYPQIINTF; listed as Homo sapiens) [compound 292] | – | ++++ (>= 75% = ++++) |
| 262 (VYSSQFETI; listed as Homo sapiens) [compound 262] | – | ++++ (>= 75% = ++++) |
